The text below walks through data of patent US8722849B2, “Polypeptides” (Novo Nordisk A/S, priority 2011, dated 2014).

Values after ≈ are worked out from the molar mass of the structure shown. Read-outs that look alike come from different tables or passages of the source. Starred links: 1 amine or outer side, 2 acyl side, 3 side chain; linkers in the order of their positions; H or OH if unused. Positions of bridges follow the written chain, without caps; N, C: chain ends. Residues, ends and D or L forms follow the SMILES beside them. *: point of attachment. C20 diacid = O=C(O)CCCCCCCCCCCCCCCCCCC(=O)*; γGlu = O=C(O)[C@H](CCC(=O)[*:2])N[*:1]

As usually defined, the EC50 is the concentration at which the effect is half-maximal. What is called solubility is the concentration that dissolves in the medium under given conditions.

Data set [1] addresses T1, human amylin receptor (amylin 3(a) receptor: human calcitonin receptor + RAMP-3) (Homo sapiens, UniProt O60896+P30988).
T1 construct: expressed in transfected cells; host or cells: BHK570
T1 sequence (P30988 25-474): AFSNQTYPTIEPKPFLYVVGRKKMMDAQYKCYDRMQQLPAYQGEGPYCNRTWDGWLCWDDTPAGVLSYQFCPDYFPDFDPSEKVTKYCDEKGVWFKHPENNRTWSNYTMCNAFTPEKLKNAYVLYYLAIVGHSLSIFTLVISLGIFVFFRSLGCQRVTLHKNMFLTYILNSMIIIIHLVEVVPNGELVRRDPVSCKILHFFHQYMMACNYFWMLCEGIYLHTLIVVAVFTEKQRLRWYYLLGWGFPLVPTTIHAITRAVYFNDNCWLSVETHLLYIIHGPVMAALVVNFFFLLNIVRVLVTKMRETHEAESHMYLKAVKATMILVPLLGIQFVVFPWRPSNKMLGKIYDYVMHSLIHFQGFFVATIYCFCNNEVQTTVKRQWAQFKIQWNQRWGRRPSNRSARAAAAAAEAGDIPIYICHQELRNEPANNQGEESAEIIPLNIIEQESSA
T1 sequence (O60896 24-148 partner): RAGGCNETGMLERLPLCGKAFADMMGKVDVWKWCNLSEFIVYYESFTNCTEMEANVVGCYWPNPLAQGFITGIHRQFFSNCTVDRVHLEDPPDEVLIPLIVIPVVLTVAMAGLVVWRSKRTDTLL
Put plainly: Assay (II)a functional CRE-luciferase assay, human amylin receptor. The format is cell-based. The conditions noted are these: Table 2; BHK amylin 3(a)-receptor/CRE-luc cells.

The target of data set [2] is T2, human calcitonin receptor (Homo sapiens, UniProt P30988).
T2 construct: expressed in transfected cells; host or cells: BHK570
T2 sequence (P30988 25-474): T1 sequence (P30988 25-474)
Put plainly: Assay (II)a functional CRE-luciferase assay, human calcitonin receptor. The format is cell-based. To be noted: Table 7; human calcitonin (CTa) receptor.

Data set [3] in a line: Assay (III) ThT fibrillation assay for physical stability. It counts as physicochemical. An outline of the steps: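 Freshly prepared formulations, pH-adjusted, with 1 μM ThT; four or eight replicates incubated at 37 °C under 960 rpm orbital shaking. Fluorescence (ex 444/em 485 nm) read every 20 min; […]. Peptide concentration measured by RP-HPLC before and after the run.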

Data set [4] is described as follows: Assay (IV) determination of solubility. The format is physicochemical. Summed up: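 Solubility was profiled across pH 3.0–8.0 after 18 hours at room temperature: a ~500 nmol/ml aqueous polypeptide solution was diluted 1:1 into 100 mM glycylglycine or bistrispropane buffers. After centrifugation, HPLC gave the dissolved concentration.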
Setting [5] is: bistrispropane buffer, pH 6, pH 6.0, read-out: Solubility pH 6.0.
[6] abbreviates: bistrispropane buffer, pH 6.5, pH 6.5, read-out: Solubility pH 6.5.
[7] abbreviates: bistrispropane buffer, pH 7, pH 7.0, read-out: Solubility pH 7.0.
Setting [8] is: bistrispropane buffer, pH 7.5, pH 7.5, read-out: Solubility pH 7.5.
Setting [9] is: bistrispropane buffer, pH 8, pH 8.0, read-out: Solubility pH 8.0.
Setting [10] is: glycylglycine buffer, pH 3, pH 3.0, read-out: Solubility pH 3.0.
Where [11] appears, read: glycylglycine buffer, pH 4, pH 4.0, 18 hours at room temperature, Table 2, read-out: Solubility pH 4.0.
Where [12] appears, read: glycylglycine buffer, pH 4, pH 4.0, read-out: Solubility pH 4.0.
Where [13] appears, read: glycylglycine buffer, pH 5, pH 5.0, read-out: Solubility pH 5.0.
Setting [14] is: bistrispropane buffer, pH 7, pH 7.0, 18 hours at room temperature, Table 3, read-out: Solubility pH 7.0.

As for `CC[C@H](C)[C@H](NC(=O)[C@@H]1CCCN1C(=O)CNC(=O)[C@H](Cc1ccccc1)NC(=O)[C@H](CC(N)=O)NC(=O)[C@H](CC(N)=O)NC(=O)[C@H](CO)NC(=O)[C@H](CO)NC(=O)[C@H](Cc1c[nH]cn1)NC(=O)[C@H](Cc1c[nH]cn1)NC(=O)[C@H](CC(C)C)NC(=O)[C@H](Cc1ccccc1)NC(=O)[C@H](CCC(=O)O)NC(=O)[C@H](C)NC(=O)[C@H](CC(C)C)NC(=O)[C@H](CCCNC(=N)N)NC(=O)[C@H](CCC(N)=O)NC(=O)[C@@H](NC(=O)[C@H](C)NC(=O)[C@@H]1CSSC[C@H](NC(=O)[C@H](CCCNC(=N)N)NC(=O)CC[C@H](NC(=O)CCCCCCCCCCCCCCCCCCC(=O)O)C(=O)O)C(=O)N[C@@H](CC(N)=O)C(=O)N[C@@H]([C@@H](C)O)C(=O)N[C@@H](C)C(=O)N[C@@H]([C@@H](C)O)C(=O)N1)[C@@H](C)O)C(=O)N[C@@H](CC(C)C)C(=O)N1CCC[C@H]1C(=O)N1CCC[C@H]1C(=O)N[C@H](C(=O)N[C@@H](CC(N)=O)C(=O)N[C@H](C(=O)NCC(=O)N[C@@H](CO)C(=O)N[C@@H](Cc1c[nH]cn1)C(=O)N[C@H](C(=O)N[C@@H](Cc1ccc(O)cc1)C(N)=O)[C@@H](C)O)C(C)C)[C@@H](C)O` [Example 95, N-alpha-[(S)-4-Carboxy-4-(19-carboxynonadecanoylamino)butyryl]-[Arg1,Glu14,His17,His35]-pramlintide] ({C20 diacid-γGlu}-RCNTATCATQRLAEFLHHSSNNFGPILPPTNVGSHTY-NH2; disulfide 2-7 (inferred)), the EC50 is 0.082 nM in data set [1] and 0.175 nM in data set [2]. Also, the “ThT pH 4.0 lag time” value in data set [3] (ThT fibrillation assay) was greater than 45 h. Moreover, the “ThT pH 4.0 lag time (h)” value in data set [3] (ThT fibrillation assay) was greater than 45 h. Also, the solubility at 18 h was greater than 200 µM in data set [4] (setting [5]); 16 µM (≈ 72.1 µg/mL) in data set [4] (setting [6]); 2 µM (≈ 9.01 µg/mL) in data set [4] (setting [7]); 11 µM (≈ 49.6 µg/mL) in data set [4] (setting [8]); 51 µM (≈ 230 µg/mL) in data set [4] (setting [9]); greater than 200 µM in data set [4] (setting [10]). The solubility at 18 h in data set [4] (setting [11]), in data set [4] (setting [12]) and in data set [4] (setting [13]) was greater than 200 µM in each case.

Regarding `CC[C@H](C)[C@H](NC(=O)[C@@H]1CCCN1C(=O)CNC(=O)[C@H](Cc1ccccc1)NC(=O)[C@H](CC(N)=O)NC(=O)[C@H](CCC(N)=O)NC(=O)[C@H](CO)NC(=O)[C@H](CO)NC(=O)[C@H](Cc1c[nH]cn1)NC(=O)[C@H](Cc1c[nH]cn1)NC(=O)[C@H](CC(C)C)NC(=O)[C@H](Cc1ccccc1)NC(=O)[C@H](CCC(=O)O)NC(=O)[C@H](C)NC(=O)[C@H](CC(C)C)NC(=O)[C@H](CCCNC(=N)N)NC(=O)[C@H](CCC(N)=O)NC(=O)[C@@H](NC(=O)[C@H](C)NC(=O)[C@@H]1CSSC[C@H](NC(=O)[C@H](CCCCN)NC(=O)CC[C@H](NC(=O)CCCCCCCCCCCCCCCCCCC(=O)O)C(=O)O)C(=O)N[C@@H](CC(N)=O)C(=O)N[C@@H]([C@@H](C)O)C(=O)N[C@@H](C)C(=O)N[C@@H]([C@@H](C)O)C(=O)N1)[C@@H](C)O)C(=O)N[C@@H](CC(C)C)C(=O)N1CCC[C@H]1C(=O)N1CCC[C@H]1C(=O)N[C@H](C(=O)N[C@@H](CC(N)=O)C(=O)N[C@H](C(=O)NCC(=O)N[C@@H](CO)C(=O)N[C@@H](CCC(N)=O)C(=O)N[C@H](C(=O)N1CCC[C@H]1C(N)=O)[C@@H](C)O)C(C)C)[C@@H](C)O` [Example 136, N-alpha-[(S)-4-Carboxy-4-(19-carboxynonadecanoylamino)butyryl]-[Glu14,His17,Gln21,Gln35,Pro37]-pramlintide] ({C20 diacid-γGlu}-KCNTATCATQRLAEFLHHSSQNFGPILPPTNVGSQTP-NH2; disulfide 2-7 (inferred)), the EC50 came to 0.091 nM in data set [1] and 0.045 nM in data set [2]. The “ThT pH 4.0 lag time” value in data set [3] (Table 8), in data set [3] (Table 9) and in data set [3] (ThT fibrillation assay) was greater than 45 h throughout. Besides, the “ThT pH 4.0 lag time (h)” value in data set [3] (ThT fibrillation assay) is given as greater than 45 h. Also, the solubility at 18 h was greater than 200 µM in data set [4] (setting [5]); greater than 200 µM in data set [4] (setting [6]); greater than 200 µM in data set [4] (setting [14]); greater than 200 µM in data set [4] (bistrispropane buffer, pH 7, pH 7.0, Table 8, read-out: Solubility pH 7.0); greater than 200 µM in data set [4] (bistrispropane buffer, pH 7, pH 7.0, Table 9, read-out: Solubility pH 7.0); greater than 200 µM in data set [4] (setting [7]). Besides, the solubility at 18 h in data set [4] (bistrispropane buffer, pH 7.5, pH 7.5, Table 9, read-out: Solubility pH 7.5) was greater than 200 µM; in data set [4] (setting [8]) it was greater than 200 µM; in data set [4] (setting [9]), greater than 200 µM; in data set [4] (setting [10]), greater than 200 µM; in data set [4] (setting [11]), greater than 200 µM; in data set [4] (setting [12]), greater than 200 µM. Further, the solubility at 18 h in data set [4] (setting [13]) is greater than 200 µM.

As to `CC[C@H](C)[C@H](NC(=O)[C@@H]1CCCN1C(=O)CNC(=O)[C@H](Cc1ccccc1)NC(=O)[C@H](CC(N)=O)NC(=O)[C@H](CC(N)=O)NC(=O)[C@H](CO)NC(=O)[C@H](CO)NC(=O)[C@H](Cc1c[nH]cn1)NC(=O)[C@H](Cc1c[nH]cn1)NC(=O)[C@H](CC(C)C)NC(=O)[C@H](Cc1ccccc1)NC(=O)[C@H](CCC(=O)O)NC(=O)[C@H](C)NC(=O)[C@H](CC(C)C)NC(=O)[C@H](CCCNC(=N)N)NC(=O)[C@H](CCC(N)=O)NC(=O)[C@@H](NC(=O)[C@H](C)NC(=O)[C@@H]1CSSC[C@H](NC(=O)[C@H](CO)NC(=O)CC[C@H](NC(=O)CCCCCCCCCCCCCCCCCCC(=O)O)C(=O)O)C(=O)N[C@@H](CC(N)=O)C(=O)N[C@@H]([C@@H](C)O)C(=O)N[C@@H](C)C(=O)N[C@@H]([C@@H](C)O)C(=O)N1)[C@@H](C)O)C(=O)N[C@@H](CC(C)C)C(=O)N1CCC[C@H]1C(=O)N1CCC[C@H]1C(=O)N[C@H](C(=O)N[C@@H](CC(N)=O)C(=O)N[C@H](C(=O)NCC(=O)N[C@@H](CO)C(=O)N[C@@H](CC(N)=O)C(=O)N[C@H](C(=O)N1CCC[C@H]1C(N)=O)[C@@H](C)O)C(C)C)[C@@H](C)O` [Example 106, N-alpha-[(S)-4-Carboxy-4-(19-carboxynonadecanoylamino)butyryl]-[Ser1,Glu14,His17,Pro37]-pramlintide] ({C20 diacid-γGlu}-SCNTATCATQRLAEFLHHSSNNFGPILPPTNVGSNTP-NH2; disulfide 2-7 (inferred); C-terminus assumed), the EC50 in data set [1] worked out at 0.0625 nM; in data set [2] it was 0.0705 nM. The “ThT pH 4.0 lag time (h)” value in data set [3] (ThT fibrillation assay) was 9.7 h. For the same compound, the solubility at 18 h in data set [4] (setting [5]), in data set [4] (setting [6]), in data set [4] (setting [14]), in data set [4] (setting [7]), in data set [4] (setting [8]) and in data set [4] (setting [9]) was greater than 200 µM in each case. The solubility at 18 h in data set [4] (setting [10]), in data set [4] (setting [11]), in data set [4] (setting [12]) and in data set [4] (setting [13]) was greater than 200 µM in each case.
